Measurements as given in patent US20230190616A1, “COMPOUNDS USEFUL FOR THE TREATMENT AND/OR CARE OF THE SKIN, HAIR, NAILS AND/OR MUCOUS MEMBRANES” (LUBRIZOL ADVANCED MATERIALS, INC., priority 2018, published 2023).

Experiments:
Assay type in all cases: cell-based
[1] = system: collagen type I in primary human dermal fibroblasts (HDFn); assay: Type I collagen synthesis on human dermal fibroblasts by ELISA; settings: 0.5 µg/ml, HDFn; for % Collagen induction: 48 hours, versus non-treated cells, mean of 5 assays
Description: In vitro study of type I collagen synthesis on human dermal fibroblasts by Enzyme-Linked Immunosorbent Assay.
Collagen type I is the principal collagen of skin. This molecule, which is mainly produced by fibroblasts, is responsible for the strength and resiliency of this tissue. For this reason, in vitro quantification of collagen induction by cosmetic products on human dermal fibroblasts provides information about their potential anti-aging effects on the skin. Collagen induction by the peptides of the invention is evaluated with an Enzyme-Linked Immunosorbent Assay (ELISA). The aim of this study is to investigate the ability of a product to induce collagen type I synthesis in primary human dermal fibroblasts isolated from neonatal skin (HDFn).
HDFn (Cascade) are seeded at a density of 5×10^4 in 48-well plates. After 24-hour incubation, fresh medium with scalar dilutions of the test items at 0.5 µg/ml are added. Non-treated cells are used as basal control. The cells are treated for 48 hours. Then, the medium of the wells is collected and transferred into a 96-well plate. A standard calibration curve prepared with calf skin type I collagen (Sigma) is transferred into the plate as well. The plate is left overnight in order to coat type I collagen into its surface. After that, collagen I is detected with an anti-collagen type I antibody (Sigma). The primary antibody is then recognized by a secondary antibody IgG-HRP (molecular probes). 3,3,5,5-tetramethylbenzidine liquid substrate (TMB, Sigma) is added to measure the amount of secondary antibody attached. The color produced by this reaction is measured in a microtiter plate reader (Clariostar™, BMG) and type I collagen concentration is determined using a linear regression of the standard curve.

[2] = system: human muscular skeletal cells (hSKMC); assay: Alleviation of TNF-α induced muscle mass loss in human skeletal muscle cells by immunofluorescence; settings: for % Loss (muscle mass loss): 0.01 mg/ml peptide after 20 ng/ml TNFα, normalized to mass loss control (BC + TNF) = 100; for Mass loss compared to basal control treated with TNF-α (in words): 0.01 mg/ml, hSKMC
Experimental: In vitro alleviation of the effects of muscle mass loss induced in human skeletal muscle cells by immunofluorescence.
Muscle mass loss correction by the peptides of the invention is evaluated by an immunofluorescence assay. The aim of this study is to investigate the capacity of peptide candidates to alleviate muscular mass loss after treatment with TNF-α in human muscular skeletal cells (hSKMC), i.e., to reverse the adverse effects induced by TNF-α (a model of muscular ageing). Myosin heavy chain (MHyC) is used as a morphologic marker of differentiated myotubes allowing the measurement of their diameters, and this can be used to ascertain a degree of mass loss. Tumor necrosis factor α (TNF-α) has been described in the literature as a muscle mass loss inductor.
hSKMC (Tebu-Bio) are seeded in 96-well plates at a density of 1.5×10^4 cells/well in Skeletal Muscle Cell Growth Medium (Promocell). After 24 hours incubation, the medium is replaced with Skeletal Muscle Cell Differentiation Medium (Promocell) and cells are differentiated for 6 days. After this, muscular cells mass loss is induced by adding fresh differentiation medium with 20 ng/ml TNFα (Sigma). Non-TNFα treated cells are used as a basal control (BC). After 24 hours of mass loss induction, the culture medium is replaced in some of the well plates with fresh differentiation medium comprising 0.01 mg/ml of the peptides of the invention. TNFα treated cells which are not treated with peptides are used as a mass loss control (BC + TNF) and cells which are treated with neither the peptides of the invention nor TNFα are used as a basal mass loss control (BC). Treatment is renewed 24 hours later. After 24 hours after the second treatment, immunofluorescence is determined. Cells are fixed 15 minutes with 4% Paraformaldehyde (Sigma), permeated 15 minutes with 1% Triton X-100 (Sigma) and then blocked with 5% Bovine Serum Albumin (Sigma). Next, primary antibody Anti-MHyC mouse (1:100, Vitro) is added and incubated overnight at 4° C. After that, secondary antibody Alexa Fluor 488 goat anti-mouse IgG (1:250, Life Technologies) is added and incubated for 1 hour. Finally, myotube diameters are determined by imaging MHyC staining by Operetta™ (Perkin Elmer). Percentage of mass loss is automatically calculated with Harmony™ (Perkin Elmer) software by classifying myotubes according to their diameter using a mass loss threshold of 20 µm. The results are normalized to the mass loss control (BC + TNF).

[3] = system: Musclebind like protein 1 (MBNL1) in human skeletal muscle cells (hSkMc); assay: Quantification of Musclebind like protein 1 in human skeletal muscle cells by TR-FRET; settings: 0.5 mg/ml, hSkMc; for % MBNL1 vs basal level: 48 hours, normalized to total protein
Experimental: In vitro quantification of Musclebind like protein 1 in human skeletal muscle cells by Time resolved fluorescence resonance energy transfer.
MBNL1 induction by the peptides of the invention is evaluated by a Time resolved fluorescence resonance energy transfer (TR-FRET) assay. The aim of this study is to investigate the capacity of peptide candidates to increase MBNL-1 in human skeletal muscle cells (hSkMc).
hSkMc (Innoprot) are seeded in 12-well plates at a density of 1.5×10^4 cells/well in Skeletal Muscle Cell Growth Medium (Promocell). After 72 hours incubation, medium is removed and replaced with Skeletal Muscle Cell Differentiation Medium (Promocell). 48 hours after beginning cell differentiation, fresh differentiation medium with 0.5 mg/ml of test items is added. Treatment is continued for 48 hours and non-treated cells are used as basal control. After 48 hours of treatment, cell medium is removed and cell lysis buffer is added to wells. Immediately, plates are kept at -80° C. in order to improve protein extraction during the defrosting process. After 72 hours, cells are lysed by shaking the plates in an orbital rotor at room temperature for 45 minutes. Next, cell lysates are collected and assayed to quantify the level of MBNL-1 protein and total protein concentration.
MBNL-1 protein levels measurement is performed with Human MBNL1 Assay Kit (Cisbio) according to the manufacturer’s protocol. Briefly, the kit is used to perform a TR-FRET for MBNL1 quantification. The protein is detected with the antibodies provided in the kit and quantified by a fluorescence measurement. The quantification is carried out by using a microplate reader (ClarioStar™™™, BMG) set to 665 nm and 620 nm.
Total protein concentration of cell lysate is determined by using Pierce BCA Protein Assay Kit (Thermo Scientific) according to manufacturer’s protocol. In brief, after adding Working Reagent to the samples and the standards, the samples are incubated. Afterwards, color change is measured with an absorbance microplate reader (Clariostar™, BMG) at 562 nm. The total protein amount is used to normalize the level of MBNL1 protein concentration obtained by the TR-FRET test in the samples.

| Substance | % Collagen induction [1] | % Loss (muscle mass loss) [2] | Mass loss compared to basal control treated with TNF-α (in words) [2] | % MBNL1 vs basal level [3] | MBNL1 levels compared to the basal control and to Argireline (in words) [3] | Efficacy in increasing collagen type I compared with Argireline (in words) [1] |
| --- | --- | --- | --- | --- | --- | --- |
| Ac-L-Arg-L-Arg-D-Gln-L-Met-L-Glu-L-Glu-NH2 [PEP-22] | 106.0% | 76.2% | alleviate mass loss | 141.4% | increase MBNL1 levels | – |
| Ac-L-Arg-L-Arg-L-Gln-D-Met-L-Glu-L-Glu-NH2 [PEP-23] | 114.6% | 71.9% | alleviate mass loss | 142.3% | increase MBNL1 levels | even higher |
